Laboratory results taken from article PMC7155171, “Probing the Open Global Health Chemical Diversity Library for Multistage-Active Starting Points for Next-Generation Antimalarials” (ACS Infectious Diseases, 2020).
Where two headings read alike, the source gives them in different places.

How the values were obtained:
[1] = test system: P. falciparum Dd2 (PfLuc) line expressing firefly luciferase, asexual blood stage; assay: microbe, parasite or virus in culture; format: cell-based, Plasmodium falciparum; settings: Plasmodium falciparum
[2] = test system: P. falciparum Dd2; assay: SYBR green I asexual blood stage proliferation assay (96 h); format: cell-based, Plasmodium falciparum; settings: Plasmodium falciparum, DD2, 11-pt dose response, 96hr
[3] = DD2, read-out: CDD P. falciparum Luciferase ABS 11-pt Reconfirmation Dose Response (48hr): IC50 (μM), 11-pt dose response, 48hr
[4] = DD2, 8-pt dose response, 96hr, read-out: CDD P. falciparum Luciferase ABS 8-pt Reconfirmation Dose Response (96hr): IC50
[5] = DD2, 8-pt dose response, 96hr, read-out: CDD P. falciparum Luciferase ABS 8-pt Reconfirmation Dose Response (96hr): Maximum inhibition (%)
[6] = DD2, 11-pt dose response, 48hr, read-out: CDD P. falciparum Luciferase ABS 11-pt Reconfirmation Dose Response (48hr): Maximum inhibition (%)
[7] = DD2, 11-pt dose response, 96hr, read-out: CDD P. falciparum Luciferase ABS 11-pt Reconfirmation Dose Response (96hr): IC50
[8] = DD2, 11-pt dose response, 96hr, read-out: CDD P. falciparum Luciferase ABS 11-pt Reconfirmation Dose Response (96hr): Maximum inhibition (%)
[9] = Sybr Green I, read-out: CDD P. falciparum Sybr Green I ABS 11-pt Reconfirmation Dose Response (96hr): IC50
[10] = Sybr Green I, read-out: CDD P. falciparum Sybr Green I ABS 11-pt Reconfirmation Dose Response (96hr): Maximum inhibition (%)

| SMILES | IC50 [1, 3] | IC50 [1, 4] | Emax [1, 5] | Emax [1, 6] | IC50 [1, 7] | Emax [1, 8] | IC50 [2, 9] | Emax [2, 10] | IC50 ([1]; DD2, read-out: P. falciparum Luciferase ABS 11-pt Reconfirmation Dose Response (48hr): IC50, 11-pt dose response, 48hr) | IC50 ([1]; DD2, 8-pt dose response, 96hr, read-out: P. falciparum Luciferase ABS 8-pt Reconfirmation Dose Response (96hr): IC50) | Emax ([1]; DD2, 8-pt dose response, 96hr, read-out: P. falciparum Luciferase ABS 8-pt Reconfirmation Dose Response (96hr): Maximum inhibition (%)) | Emax ([1]; DD2, 11-pt dose response, 48hr, read-out: P. falciparum Luciferase ABS 11-pt Reconfirmation Dose Response (48hr): Maximum inhibition (%)) | IC50 ([1]; DD2, 11-pt dose response, 96hr, read-out: P. falciparum Luciferase ABS 11-pt Reconfirmation Dose Response (96hr): IC50) | Emax ([1]; DD2, 11-pt dose response, 96hr, read-out: P. falciparum Luciferase ABS 11-pt Reconfirmation Dose Response (96hr): Maximum inhibition (%)) | IC50 ([2]; read-out: P. falciparum Sybr Green I ABS 11-pt Reconfirmation Dose Response (96hr): IC50) | Emax ([2]; read-out: P. falciparum Sybr Green I ABS 11-pt Reconfirmation Dose Response (96hr): Maximum inhibition (%)) |
| --- | --- | --- | --- | --- | --- | --- | --- | --- | --- | --- | --- | --- | --- | --- | --- | --- |
| CC(C)C(CNCc1cccc2c1OCO2)N1CCOCC1 (stereo not shown) [DDD01077478] | > 12.5 µM | 0.56 µM | 86.4% | 52.1% | 2.57 µM | 85.2% | 1890 nM | 62.1% |  |  |  |  |  |  |  |  |
| Cc1n[nH]cc1CNC1(c2ccc(F)cc2)CCCC1 [DDD01077733] | > 12.5 µM | 0.59 µM | 86.6% | 59% | 2.1 µM | 87% | > 1390 nM | 59% |  |  |  |  |  |  |  |  |
| CC(NCCN1CCC(N(C)C)CC1)c1ccc(Cl)s1 (stereo not shown) [DDD01077862] | 4.33 µM | 0.92 µM | 87.7% | 83.2% | 1.35 µM | 97.3% | 2870 nM | 89% |  |  |  |  |  |  |  |  |
| NC(=O)CN1CCC(Nc2ccnc3ccc(Cl)cc23)CC1 [DDD01078433] | 1.98 µM | 0.96 µM |  | 99.5% | 1.05 µM | 100% | 1020 nM | 98.2% |  |  |  |  |  |  |  |  |
| CS(=O)(=O)CCCNC1(c2cccc(Cl)c2)CCCC1 [DDD01078792] |  |  |  |  |  |  |  |  | > 12.5 µM | 1.66 µM | 85% | 68.8% | 3.02 µM | 88% | > 4160 nM | 73.6% |
| Cc1cccc(C2(NCCCS(C)(=O)=O)CCCC2)c1 [DDD01078804] | 12.1 µM | 0.66 µM | 85% | 56.6% | 1.93 µM | 85.9% | 6570 nM | 74.2% |  |  |  |  |  |  |  |  |
| Cc1cn2c(n1)C(CNCc1ccc(C)s1)CCC2 (stereo not shown) [DDD01079169] | 1.64 µM | 0.63 µM | 93.4% | 93.3% | 0.471 µM | 100% | 2250 nM | 83.8% |  |  |  |  |  |  |  |  |
| O=C(CN1CCCC(c2ccn[nH]2)C1)Nc1nc2c(s1)CCC2 (stereo not shown) [DDD01079497] | 0.618 µM | 0.22 µM | 90.5% |  | 0.451 µM | 97.6% | 192 nM | 73.2% |  |  |  |  |  |  |  |  |
| Cc1cc(C2CCCN(CC(=O)Nc3nc4c(s3)CCC4)C2)n[nH]1 (stereo not shown) [DDD01079504] | 0.456 µM | 0.28 µM | 81.5% | 84.9% | 0.388 µM | 97.8% | 179 nM | 71.3% |  |  |  |  |  |  |  |  |
| Cc1cc(Br)cnc1NCCN1CCC(N(C)C)CC1 [DDD01079597] | 7.01 µM | 0.51 µM | 92.4% | 87.3% | 1.15 µM | 99.5% | 3190 nM | 92.7% |  |  |  |  |  |  |  |  |
| COc1cccc(CNC(CN2CCN(C)CC2)c2ccccc2)c1 (stereo not shown) [DDD01079897] | 2.58 µM | 0.38 µM | 91% | 83.2% | 0.79 µM | 98.1% | 1650 nM | 94.5% |  |  |  |  |  |  |  |  |
| Cc1ccc(CNC(CN2CCN(C)CC2)c2ccccc2)cc1 (stereo not shown) [DDD01079898] | 4.31 µM | 0.26 µM | 91.3% | 88.2% | 1.21 µM | 98.8% | 1360 nM | 95.9% |  |  |  |  |  |  |  |  |
| Cc1cccc(CNC(CN2CCN(C)CC2)c2ccccc2)c1 (stereo not shown) [DDD01079901] | 2.73 µM | 0.24 µM | 91.5% | 89.2% | 0.53 µM | 99% | 449 nM | 98.3% |  |  |  |  |  |  |  |  |
| NCC1(c2cccc(Br)c2)CCOCC1 [DDD01079955] | 4.79 µM | 0.84 µM | 87.3% | 58.8% | 1.63 µM | 85.9% | > 4160 nM | 76.8% |  |  |  |  |  |  |  |  |
| COCCCN1CCCN(C(C)C(=O)Nc2cccc(I)c2)CC1 (stereo not shown) [DDD01080015] | 2.64 µM | 0.87 µM | 92% | 71.5% | 1.94 µM | 94.8% | 10600 nM | 77.7% |  |  |  |  |  |  |  |  |
